According to patent US5084455A, “Novel indole carboxamides” (Roussel Uclaf, priority 1985, dated 1992):
Where a name gives a salt, the structure may show the parent alone. Read-outs that look alike come from different tables or passages of the source.

Columns and labels:
[1] = test system: disturbances of the cardiac rhythm; assay: Anti-arrhythmic action in the rat (aconitine perfusion); type: in vivo, male rats
Protocol: Male rats weighing 300-350 g were anesthetized intra-peritoneally with 1.20 g/kg of urethane, then tracheotomized and submitted to artificial respiration (40-50 breaths of 3 ml/minute). Needles were implanted subcutaneously so as to record the electro-cardiogram of the rats on the DII derivation signal. The products under test were administered intravenously or orally.
Five minutes after the administration of the product intravenously or 1 hour after administration orally, the jugular vein of the rats was perfused with 10 μg/minute from 0.2 ml of a solution of aconitine, and the time of appearance of disturbances of the cardiac rhythm was noted, (10 μg of aconitine corresponding to a perfusion of 0.2 ml of solution). The results are expressed as a percentage of the extension of the time of appearance of the disturbances of the cardiac rhythm as compared with controls, and as a function of the dose of the product under test.

Rat caudal arteries = assay: Test of calcium-antagonistic activity in vitro (K+ depolarized caudal arteries); type: cell-based; conditions: 100 mM K+, 37° C., read-out: IC50, inhibition of the contraction due to K+ ions
Protocol: Calcium chloride was added in a volume of 250 μl to obtain a series of increasing concentrations of Ca^2+ ions ranging from 0.1 to 3.0 mM. The contractions of the arteries were recorded and a control series were thus established. The operation was repeated with the series of CA^2+ ions every 15 minutes and the preparation was washed four times after each series. When a stable response was obtained, the operation with the series of CA^2+ ions was performed in the presence of different concentrations of the test product, until a stable response was obtained.
The contractions of the arteries depend on the entry of Ca^2+ ions into the cells of the smooth muscles, and were caused by the depolarization of the smooth muscle by the K^+ ions and by the action of the noradrenaline released at presynaptic level. By starting the operation again with arteries denervated by the action of 6-OH-dopamine, the specific action due to noradrenaline was eliminated.

mice = assay: Study of the acute toxicity; type: in vivo; conditions: oral
Protocol: The lethal doses LD50 of the different compounds tested were evaluated after administration orally to mice. The maximum dose not causing any mortality in 8 days was called the LD0 and the following results were obtained.

[2] = read-out: Percentage of prolongation in the time
[3] = iv, read-out: Percentage extension of the time of appearance of disturbances of the cardiac rhythm
[4] = iv, read-out: Percentage of prolongation in the time
[5] = po, read-out: Percentage extension of the time of appearance of disturbances of the cardiac rhythm

## O=C(Nc1cccc2[nH]ccc12)c1ccccc1OCC(O)CN1CCN(C(c2ccccc2)c2ccccc2)CC1 (stereo not drawn) [Example 46, 2-[2-Hydroxy-3-[4-(diphenylmethyl)-1-piperazinyl]propoxy]-N-(1H-indol-4-yl)benzamide]
[1]; [2]
  change in vivo at 2.5 mg/kg: 67%
  change in vivo at 5 mg/kg: 127%
  change in vivo at 10 mg/kg: 203%
Rat caudal arteries
  IC50: 0.25 µM
mice
  LD0 (maximum dose not causing any mortality in 8 days): 400 mg/kg

## CC(C)N(CC(O)COc1ccccc1C(=O)Nc1cccc2[nH]ccc12)C(C)C (stereo not drawn) [Example 15]
[1]; [3]
  change in vivo at 2.5 mg/kg: 25.5%
  change in vivo at 5 mg/kg: 56%
mice
  LD0 (maximum dose not causing any mortality in 8 days): ≥ 400 mg/kg

## COc1ccc(CCNCCCOc2ccccc2NC(=O)c2cccc3[nH]ccc23)cc1OC [Example 45, N-[2-[3-[[2-(3,4-dimethoxyphenyl)ethyl]-amino]propoxy]phenyl]-1H-indole-4-carboxamide]
[1]; [2]
  change in vivo at 2.5 mg/kg: 60%
  change in vivo at 5 mg/kg: 142%
  change in vivo at 10 mg/kg: 193%

## CC(C)NCCCOc1ccccc1NC(=O)c1cccc2[nH]ccc12 [Example 41, N-[2-[3-[Isopropylamino]propoxy]phenyl]-1H-indole-4-carboxamide]
[1]; [2]
  change in vivo at 1 mg/kg: 34%
  change in vivo at 2.5 mg/kg: 57%
  change in vivo at 5 mg/kg: 156%

## CC(C)(C)NCCCOc1ccccc1NC(=O)c1cccc2[nH]ccc12 [Example 3, N-[2-[3-[(1,1-dimethylethyl)amino]propoxy]phenyl]-1H-indol-4-carboxamide hydrochloride]
[1]; [3]
  change in vivo at 2.5 mg/kg: 68%

## COc1cc(CCN2CCN(CCCCOc3ccccc3C(=O)Nc3cccc4[nH]ccc34)CC2)cc(OC)c1OC [Example 47, N-(1H-Indol-4-yl)-2-[4-[4-[2-(3,4,5-trimethoxyphenyl)ethyl]-1-piperazinyl]butoxy]benzamide]
[1]; [2]
  change in vivo at 5 mg/kg: 44%
  change in vivo at 10 mg/kg: 67%
Rat caudal arteries
  IC50: 2.8 µM

## C#CC(C)(C)NCC(O)COc1ccccc1C(=O)Nc1cccc2[nH]ccc12 (stereo not drawn) [Example 35, 2-[3-[1,1-Dimethyl-2-propynylamino]-2-hydroxypropoxy]-N-(1H-indol-4-yl) benzamide]
Rat caudal arteries
  IC50: 9 µM

## O=C(Nc1cccc2[nH]ccc12)c1ccccc1OCCCNCC1CCCCC1 [Example 32, 2-[3-[Cyclohexylmethylamino]-propoxy)-N-(1H-indol-4-yl)benzamide]
[1]; [3]
  change in vivo at 1 mg/kg: 43%
  change in vivo at 2.5 mg/kg: 71%
  change in vivo at 5 mg/kg: 97%
  change in vivo at 6.5 mg/kg: 28%
Rat caudal arteries
  IC50: 3.9 µM
mice
  LD0 (maximum dose not causing any mortality in 8 days): 100 mg/kg

## Cn1ccc2c(NC(=O)c3ccccc3OCC(O)CN3CCN(C(c4ccccc4)c4ccccc4)CC3)cccc21 (stereo not drawn) [Example 49]
Rat caudal arteries
  IC50: 3 µM

## O=C(Nc1ccccc1OCCCNC1CCCC1)c1cccc2[nH]ccc12 [Example 42, N-[2-[3-(Cyclopentylamino)propoxy]phenyl]-1H-indol-4-carboxamide]
[1]; [2]
  change in vivo at 1 mg/kg: 29%
  change in vivo at 2.5 mg/kg: 86%

## CC(C)(C)NCC(O)COc1ccc([N+](=O)[O-])cc1C(=O)Nc1cccc2[nH]ccc12 (stereo not drawn) [Example 50]
[1]; [4]
  change in vivo at 0.5 mg/kg: 17%
  change in vivo at 1 mg/kg: 39%
  change in vivo at 2.5 mg/kg: 77%
mice
  LD0 (maximum dose not causing any mortality in 8 days): 200 mg/kg

## CC(C)N(CCOc1ccccc1C(=O)Nc1cccc2[nH]ccc12)C(C)C [Example 12, 2-[2-[bis(1-methylethyl)-amino]ethoxy-]N-(1H-indol-4-yl) benzamide]
mice
  LD0 (maximum dose not causing any mortality in 8 days): > 400 mg/kg

## O=C(Nc1cccc2[nH]ccc12)c1ccccc1OCCCNC1CCCCC1 [Example 31, 2-[3-(Cyclohexylamino)propoxy]-N-(1-H-indol-4-yl)benzamide]
[1]; [3]
  change in vivo at 1 mg/kg: 24%
  change in vivo at 2.5 mg/kg: 34%
  change in vivo at 5 mg/kg: 83%
Rat caudal arteries
  IC50: 1.8 µM

## O=C(Nc1ccccc1OCCCNC1CCCCC1)c1cccc2[nH]ccc12 [Example 43, N-[2-[3-(Cyclohexylamino)propoxy]phenyl]-1H-indole-4-carboxamide]
[1]; [2]
  change in vivo at 1 mg/kg: 49%
  change in vivo at 2.5 mg/kg: 83%

## CC(C)(CO)NCC(O)COc1ccccc1C(=O)Nc1cccc2[nH]ccc12 (stereo not drawn) [Example 37, 2-[3-[1,1-Dimethyl-2-hydroxyethylamino]-2-hydroxypropoxy]-N-(1H-indol-4-yl)benzamide]
[1]; [2]
  change in vivo at 1 mg/kg: 47%
  change in vivo at 5 mg/kg: 116%

## CC(C)(C)NCCOc1ccccc1C(=O)Nc1cccc2[nH]ccc12.Cl [Example 5, 2-[2-[(1,1-dimethylethyl)amino]ethoxy]-N-(1H-indol-4-yl)-benzamide hydrochloride]
[1]; [3]
  change in vivo at 0.25 mg/kg: 9%
  change in vivo at 0.5 mg/kg: 36%
  change in vivo at 1 mg/kg: 33%
  change in vivo at 2.5 mg/kg: 61%
[1]; [5]
  change in vivo at 2.5 mg/kg: 22%
  change in vivo at 5 mg/kg: 32%
  change in vivo at 10 mg/kg: 59%
mice
  LD0 (maximum dose not causing any mortality in 8 days): 60 mg/kg

## CC(C)(C)NCCCOc1ccccc1C(=O)Nc1cccc2[nH]ccc12 [Example 6, 2-[3-[(1,1-dimethylethyl)amino]propoxy]-N-(1H-indol-4-yl)benzamide]
[1]; [3]
  change in vivo at 1 mg/kg: 23%
  change in vivo at 2.5 mg/kg: 41%
[1]; [5]
  change in vivo at 2.5 mg/kg: 29%
mice
  LD0 (maximum dose not causing any mortality in 8 days): 200 mg/kg

## CCC(C)(C)NCCCOc1ccccc1C(=O)Nc1cccc2[nH]ccc12 [Example 30, 2-[3-[(1,1-dimethylpropyl)amino]-propoxy]-N-(1H-indol-4-yl)benzamide]
[1]; [3]
  change in vivo at 2.5 mg/kg: 38%
  change in vivo at 5 mg/kg: 99%
  change in vivo at 10 mg/kg: 147%
Rat caudal arteries
  IC50: 8 µM
mice
  LD0 (maximum dose not causing any mortality in 8 days): 80 mg/kg

## CC(C)(C)NCC(O)COc1ccc(Cl)cc1C(=O)Nc1cccc2[nH]ccc12 (stereo not drawn) [Example 54, 5-Chloro-2-[3-(1,1-dimethylethyl)-amino]-2-hydroxy-propoxy-N-(1H-indol-4-yl)-benzamide]
Rat caudal arteries
  IC50: 5.4 µM

## COc1ccc(C(=O)Nc2cccc3[nH]ccc23)c(OCC(O)CNC(C)(C)C)c1 (stereo not drawn) [Example 53, 2-[3-(1,1-dimethylethyl)-amine]-2-hydroxy-propoxy-N-(1H-indol-4-yl)-4-methoxy-benzamide]
[1]; [4]
  change in vivo at 1 mg/kg: 10%
  change in vivo at 2.5 mg/kg: 38%
Rat caudal arteries
  IC50: 8 µM

## CC(C)(C)NCCOc1ccccc1NC(=O)c1cccc2[nH]ccc12 [Example 2, N-[2-[2-[(1,1-dimethylethyl)amino]ethoxy]phenyl]-1H-indol-4-carboxamide]
[1]; [3]
  change in vivo at 1 mg/kg: 6%
  change in vivo at 2.5 mg/kg: 57%
mice
  LD0 (maximum dose not causing any mortality in 8 days): 80 mg/kg

## CCCNCCCOc1ccccc1C(=O)Nc1cccc2[nH]ccc12 [Example 38, N-(1H-Indol-4-yl)-2-[3-(propylamino)propoxy]-benzamide]
[1]; [2]
  change in vivo at 2.5 mg/kg: 42%
  change in vivo at 5 mg/kg: 76%
  change in vivo at 10 mg/kg: 173%

## CCC(C)(C)NCCCOc1ccccc1NC(=O)c1cccc2[nH]ccc12 [Example 44, N-[2-[3-[1,1-Dimethylpropylamino]propoxy]phenyl]-1H-indole-4-carboxamide]
[1]; [2]
  change in vivo at 1 mg/kg: 50%
  change in vivo at 2.5 mg/kg: 90%
  change in vivo at 5 mg/kg: 167%
mice
  LD0 (maximum dose not causing any mortality in 8 days): 200 mg/kg

## CC(C)(CO)NCCCOc1ccccc1C(=O)Nc1cccc2[nH]ccc12 [Example 40, 2-[3-[1,1-dimethyl-2-hydroxyethylamino]-propoxy]-N-(1H-indol-4-yl)benzamide]
[1]; [2]
  change in vivo at 1 mg/kg: 21%
  change in vivo at 2.5 mg/kg: 50%
Rat caudal arteries
  IC50: 8.4 µM

## CC(C)(C)NCC(O)COc1ccccc1NC(=O)c1cccc2[nH]ccc12 (stereo not drawn) [Example 1, N-[2-[3-[(1,1-dimethylethyl)amino]-2-hydroxypropoxy]-phenyl]-1H-indol-4-carboxyamide]
[1]; [3]
  change in vivo at 0.25 mg/kg: 31%
  change in vivo at 0.5 mg/kg: 41%
  change in vivo at 1 mg/kg: 110%
mice
  LD0 (maximum dose not causing any mortality in 8 days): 80 mg/kg

## CC(C)(C)NCCCCOc1ccccc1C(=O)Nc1cccc2[nH]ccc12 [Example 33, 2[4-[1,1-Dimethylethylamino]butoxy]-N-(1H-indol-4-yl)benzamide]
[1]; [2]
  change in vivo at 5 mg/kg: 54%
  change in vivo at 10 mg/kg: 99%
Rat caudal arteries
  IC50: 6.3 µM
mice
  LD0 (maximum dose not causing any mortality in 8 days): > 400 mg/kg

## CC(C)(C)CC(C)(C)NCC(O)COc1ccccc1C(=O)Nc1cccc2[nH]ccc12 (stereo not drawn) [Example 36, 2-[2-Hydroxy-3-[1,1,3,3-tetramethylbutyl-amino]propoxy]-N-(1H-indol-4-yl)benzamide]
[1]; [2]
  change in vivo at 1 mg/kg: 25%
  change in vivo at 2.5 mg/kg: 69%
Rat caudal arteries
  IC50: 0.44 µM

## CC(C)(C)NCC(O)COc1ccccc1C(=O)Nc1cccc2[nH]ccc12 (stereo not drawn) [Example 4, 2-[3-[(1,1-dimethylethyl)amino]-2-hydroxypropoxy]-N-(1H-indol-4-yl)benzamide]
[1]; [3]
  change in vivo at 0.5 mg/kg: 17%
  change in vivo at 1 mg/kg: 38%
  change in vivo at 2.5 mg/kg: 124%
[1]; [5]
  change in vivo at 5 mg/kg: 7%
  change in vivo at 10 mg/kg: 46%
  change in vivo at 25 mg/kg: 81%
mice
  LD0 (maximum dose not causing any mortality in 8 days): > 400 mg/kg
